Source: patent US7238340B1, “Monoamine, diamide, thiol-containing metal chelating agents” (CIS bio international, priority 1991, dated 2007)
Where two headings read alike, the source gives them in different places. Starred links: 1 amine or outer side, 2 acyl side, 3 side chain; linkers in the order of their positions; H or OH if unused. Positions of bridges follow the written chain, without caps; N, C: chain ends. Non-standard residues stand in square brackets, D forms with d. Residues, ends and D or L forms follow the SMILES beside them. Chains are numbered I, II in the order given. No end group written: not given here. *: point of attachment. Phe(4-Cl) = N[C@@H](Cc1ccc(Cl)cc1)C(=O)O; d2Nal = N[C@H](Cc1ccc2ccccc2c1)C(=O)O; εLys = N[C@@H](CCCCN[*:1])C(=O)[*:2]; Propyl(3-NH2) = NCCC*; βAla = NCCC(=O)O

Experiments:
[1] = target: T1, somatostatin receptor (Rattus norvegicus, UniProt P30680); test: Inhibition of [125I-Tyr11]somatostatin-14 binding to AR42J rat pancreatic tumor cell membranes; conditions: [125I-Tyr11]somatostatin-14 0.5 nM, 25 min at 30° C.
T1 construct: endogenous in cells; host or cells: AR42J rat pancreatic tumor cells (membrane preparation)
Method: The rat pancreatic tumor cell line AR42J expressing the somatostatin receptor was cultured in Dulbecco's modified essential media (DMEM) supplemented with 10% fetal calf serum (FCS) and 8 mM glutamine in a humidified 5% CO2 atmosphere at 37° C. Harvested cells were homogenized in cold buffer (50 mM Tris-HCl, pH 7.4), and the homogenate was then centrifuged at 39,000 g for 10 min at 4° C. Pellets were washed once with buffer and then resuspended in ice-cold 10 mM Tris-HCl buffer (pH 7.4). Equal aliquots of this cell membrane preparation were then incubated with [^125I-Tyr^11]somatostatin-14 (Amersham, Arlington Heights, Ill.) at a final concentration of 0.5 nM at 750,000 cpm/mL, specific activity 2000Ci/mmol and either a peptide or peptide-rhenium complex of the invention (at a final concentration ranging from […] in 50 mM HEPES buffer, pH 7.4, containing 1% bovine serum albumin, 5 mM MgCl2, 0.02 mg/mL bacitracin, 0.02 mg/mL phenylmethyl-sulfonylfluoride and 200,000 IU Trasylol) for 25 min at 30° C.
After incubation, this membrane mixture was filtered through a polyethyleneimine-washed GC/F filter (Whatman Ltd., Maidstone, England) using a filtration manifold, and the residue remaining on the filter was washed three times with 5 mL cold HEPES buffer. The filter and a sample of the filter washings were then counted on a gamma counter. […]

[2] = test system: fresh human platelet-rich plasma; test: Platelet aggregation inhibition assay (ADP-induced); assay type: cell-based
Method: Platelet aggregation studies were performed essentially as described by Zucker (1989, Methods in Enzymol. 169: 117–133). Briefly, platelet aggregation was assayed with or without putative platelet aggregation inhibitory compounds using fresh human platelet-rich plasma, comprising 300,000 platelets per microlitre. Platelet aggregation was induced by the addition of a solution of adenosine diphosphate to a final concentration of 10 to 15 micromolar, and the extent of platelet aggregation monitored using a Bio/Data aggregometer (Bio/Data Corp., Horsham, Pa.). The concentrations of platelet aggregation inhibitory compounds used were varied from 0.1 to 500 μg/mL. The concentration of inhibitor that reduced the extent of platelet aggregation by 50% (defined as the IC50) was determined from plots of inhibitor concentration versus extent of platelet aggregation. An inhibition curve for peptide RGDS was determined for each batch of platelets tested as a positive control.

[3] = test system: thrombus; test: In vivo imaging of deep vein thrombosis with Tc-99m labeled thrombus targeting peptide, canine model; conditions: Tc-99m labeled peptide, i.v., dog
Text: (§1) Mongrel dogs (25–35 lb., fasted overnight) were sedated with a combination of ketamine and aceprozamine intramuscularly and then anesthetized with sodium pentabarbital intravenously. In each animal, an 18-gauge angiocath was inserted in the distal half of the right femoral vein and a 5 mm or 8 mm Dacron®-entwined stainless steel embolization coil (Cook Co., Bloomington Ind.) was placed in the femoral vein at approximately mid-femur. The catheter was removed, the wound sutured and the placement of the coil documented by X-ray. The animals were then allowed to recover overnight.
(§2) One day following coil placement, each animal was re-anesthetized, intravenous saline drips placed in each foreleg and a urinary bladder catheter inserted to collect urine. The animal was placed supine under a gamma camera equipped with a low-energy, all purpose collimator and photopeaked for Tc-99m. […] The second line was maintained for blood collection.
(§3) Gamma camera imaging was started simultaneously with injection. Anterior images over the heart were acquired as a dynamic study (10 sec image acquisitions) over the first 10 min, and then as static images at 1, 2, 3 and 4h post-injection. Anterior images over the legs were acquired for 500,000 counts or 20 min (whichever is shorter), at approximately 10–20 min, and at approximately 1, 2, 3 and 4h post-injection. Leg images were collected with a lead shield placed over the bladder.
(§4) Following collection of the final image, each animal was deeply anesthetized with pentobarbital. Two blood samples were collected using a heparinized syringe followed by a euthanizing dose of saturated potassium chloride solution administered by intercardiac or bolus intravenous injection. […] The thrombus, coil and coil Dacron fibres were then dissected free of the vessel. The thrombus, saline-washed vessel samples, coil and coil Dacron® fibres were separated, and each sample was placed in a pre-weighed test tube. The samples were weighed and counted in a gamma well counter in the Tc-99m channel, along with known fractions of the injected doses.
(§5) Fresh thrombus weight, percent injected dose (% ID)/g in the thrombus and blood obtained just prior to euthanasia and thrombus/blood and thrombus/muscle ratios were determined. From the computer-stored images, thrombus/background ratios were determined by analysis of the counts/pixel measured in regions-of-interest (ROI) drawn over the thrombus and adjacent muscle.

[4] = test system: thrombus; conditions: dog, in vivo, iv
Text: as §1, §2, §3, §4, §5

[5] = test system: Escherichia coli infected muscle; parameters: species or system New Zealand White (NZW) rabbits; conditions: rabbit, in vivo
Method: New Zealand White (NZW) rabbits of both sexes and weighing 2–3 kg were innoculated intramuscularly in the left calf with a potent strain of Escherichia coli. After 24 hours, the animals were sedated by intramuscular injection of ketamine and xylazine and then injected with Tc-99m labeled infection targeting agent (2–10mCi, <150 μg). The animals were then positioned supine in the field of view of a gamma cammera (LEAP collimator/photopeaked for Tc-99m) to be imaged. The animals were imaged over the first hour post-injection, and then at approximately 1 hour intervals for the next 3 hours. Animals were allowed to recover between image acquisiitons and re-anesthetized as needed.
Upon completion of the final imaging, each animal was sacrificed with an intravenous overdose of sodium pentobarbital, then dissected to obtain samples of blood and of infected and control tissue. Tissue samples were weighed and counted using a gamma radition counter; a standard amount the injected dose was counted in parallel with each sample as a control.

[6] = test system: CA20948 rat pancreatic tumor; parameters: species or system Lewis rats; conditions: in vivo, iv
Method: In vivo imaging of somatostatin receptors expressed by rat tumor cells was performed essentially as described by Bakker et al. (1991, Life Sciences 49: 1593–1601).
CA20948 rat pancreatic tumor cells, thawed from frozen harvested tumor brei, were implanted intramuscularly into the right hind thigh of 6 week old Lewis rats in a suspension of 0.05 to 0.1 mL/animal. The tumors were allowed to grow to approximately 0.5 to 2 g, harvested, and tumor brei was used to implant a second, naive set of Lewis rats. Passaging in this fashion was repeated to generate successive generations of tumor-bearing animals. The tumor-bearing animals used for the in vivo studies were usually from the third to fifth passage and carried 0.2 to 2 g tumors.
For studies of the specificity of radiotracer localization in the tumors, selected animals were given an subcutaneous SSTR-blocking dose (4 mg/kg) of octreotide 30 minutes prior to injection of the radiotracer.
Third- to fifth-passage CA20948 tumor-bearing Lewis rats were restrained and injected intravenously via the dorsal tail vein with a dose of 0.15–0.20 mCi of a ^99mTc-labeled SSTR targeting imaging agent of the invention (corresponding to 3 to 8 μg peptide in 0.2 to 0.4 mL).
At selected times, the animals were sacrificed by cervical dislocation and selected necropsy was performed. Harvested tissue samples were weighed and counted along with an aliquot of the injected dose in a gamma well-counter.

[7] = ADP 10 to 15 micromolar, human platelet-rich plasma, read-out: IC50

T1 sequence (P30680 whole entry): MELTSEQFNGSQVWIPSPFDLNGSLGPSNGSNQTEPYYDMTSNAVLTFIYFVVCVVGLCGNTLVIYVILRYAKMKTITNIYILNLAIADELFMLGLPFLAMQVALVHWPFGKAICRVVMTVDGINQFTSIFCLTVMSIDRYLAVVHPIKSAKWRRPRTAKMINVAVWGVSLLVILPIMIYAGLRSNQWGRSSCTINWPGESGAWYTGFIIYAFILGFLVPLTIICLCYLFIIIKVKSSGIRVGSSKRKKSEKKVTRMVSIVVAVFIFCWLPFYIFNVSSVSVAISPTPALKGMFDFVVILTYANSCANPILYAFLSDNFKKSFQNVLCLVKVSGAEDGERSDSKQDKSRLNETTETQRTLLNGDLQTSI

CC(=O)N[C@H](Cc1ccc2ccccc2c1)C(=O)N[C@@H](Cc1ccc(Cl)cc1)C(=O)N[C@@H](Cc1ccc(O)cc1)C(=O)N[C@H](Cc1c[nH]c2ccccc12)C(=O)N[C@@H](CCCCN)C(=O)N[C@H](C(=O)N[C@@H](Cc1ccccc1)C(=O)N[C@H](C(=O)NCCCC[C@H](N)C(=O)NCC(=O)N[C@@H](CS)C(=O)N[C@@H](CCCCN)C(=O)N[C@@H](CCCCN)C(N)=O)[C@@H](C)O)[C@@H](C)O [Peptide P548, acetyl.NalD.Cpa.YWDKTFT(ε-K)GCKK.amide] (Ac-[d2Nal][Phe(4-Cl)]Y[dW]KTFT[εLys]GCKK-NH2)
Ki [1]: 3.6 nM

NCCCSC[C@@H]1NC(=O)[C@@H](Cc2ccc(O)cc2)NC(=O)CSC[C@@H](C(=O)NCC(=O)NCCCC[C@H](NC(=O)CNC(=O)[C@@H]2CSCC(=O)N[C@H](Cc3ccc(O)cc3)C(=O)N[C@@H](CSCCCN)C(=O)NCC(=O)N[C@@H](CC(=O)O)C(=O)N2)C(=O)NCC(=O)NCCCC[C@H](NC(=O)CNC(=O)[C@H](CCCCNC(=O)CNC(=O)[C@@H]2CSCC(=O)N[C@H](Cc3ccc(O)cc3)C(=O)N[C@@H](CSCCCN)C(=O)NCC(=O)N[C@@H](CC(=O)O)C(=O)N2)NC(=O)CNC(=O)[C@@H]2CSCC(=O)N[C@H](Cc3ccc(O)cc3)C(=O)N[C@@H](CSCCCN)C(=O)NCC(=O)N[C@@H](CC(=O)O)C(=O)N2)C(=O)NCCCC[C@H](N)C(=O)NCC(=O)N[C@@H](CS)C(=O)NCC(N)=O)NC(=O)[C@H](CC(=O)O)NC(=O)CNC1=O [Peptide P681, {(CH2CO.YDApc.GDCG)2KG}2K(ε-K)GCG.amide] (I: {CH2CO}-[dY]C(Propyl(3-NH2))GDCGKGK[εLys]GCG-NH2 / II: {CH2CO}-[dY]C(Propyl(3-NH2))GDCGKG / III: {CH2CO}-[dY]C(Propyl(3-NH2))GDCG / IV: {CH2CO}-[dY]C(Propyl(3-NH2))GDCG; amide I:7-IV:C, I:9-II:C, II:7-III:C (inferred); thioether I:N-I:5, II:N-II:5, III:N-III:5, IV:N-IV:5 (inferred))
IC50 [2]: 110 nM

NCCCC[C@H](NC(=O)[C@@H]1CSCC(=O)N[C@H](Cc2ccc(O)cc2)C(=O)N[C@@H](CSCCCN)C(=O)NCC(=O)N[C@@H](CC(=O)O)C(=O)N1)C(=O)NCC(=O)NCC(=O)NCCCC[C@H](NC(=O)CNC(=O)CNC(=O)[C@H](CCCCN)NC(=O)[C@@H]1CSCC(=O)N[C@H](Cc2ccc(O)cc2)C(=O)N[C@@H](CSCCCN)C(=O)NCC(=O)N[C@@H](CC(=O)O)C(=O)N1)C(=O)NCCCC[C@H](N)C(=O)NCC(=O)N[C@@H](CS)C(=O)NCCC(N)=O [Peptide P687, (CH2CO.YD.Apc.GDCKGG)2K(ε-K)GC.β-Ala.amide] (I: {CH2CO}-[dY]C(Propyl(3-NH2))GDCKGGK[εLys]GC[βAla]-NH2 / II: {CH2CO}-[dY]C(Propyl(3-NH2))GDCKGG; amide I:9-II:C (inferred); thioether I:N-I:5, II:N-II:5 (inferred))
IC50 [2]: 79 nM

CC(=O)NCSC[C@H](NC(=O)CNC(=O)CNC(=O)[C@@H]1CSCC(=O)N[C@H](Cc2ccc(O)cc2)C(=O)N[C@@H](CSCCCN)C(=O)NCC(=O)N[C@@H](CC(=O)O)C(=O)N1)C(=O)NCC(=O)N[C@@H](CSCNC(C)=O)C(=O)NCC(=O)NCC(=O)N[C@@H](CSCC(=O)NCCCC[C@H](NC(=O)CSC[C@H](NC(=O)CNC(=O)CNC(=O)[C@H](CSCNC(C)=O)NC(=O)CNC(=O)[C@H](CSCNC(C)=O)NC(=O)CNC(=O)CNC(=O)[C@@H]1CSCC(=O)N[C@H](Cc2ccc(O)cc2)C(=O)N[C@@H](CSCCCN)C(=O)NCC(=O)N[C@@H](CC(=O)O)C(=O)N1)C(N)=O)C(=O)NCCCC[C@H](NC(=O)[C@H](CCCCNC(=O)CSC[C@H](NC(=O)CNC(=O)CNC(=O)[C@H](CSCNC(C)=O)NC(=O)CNC(=O)[C@H](CSCNC(C)=O)NC(=O)CNC(=O)CNC(=O)[C@@H]1CSCC(=O)N[C@H](Cc2ccc(O)cc2)C(=O)N[C@@H](CSCCCN)C(=O)NCC(=O)N[C@@H](CC(=O)O)C(=O)N1)C(N)=O)NC(=O)CSC[C@H](NC(=O)CNC(=O)CNC(=O)[C@H](CSCNC(C)=O)NC(=O)CNC(=O)[C@H](CSCNC(C)=O)NC(=O)CNC(=O)CNC(=O)[C@@H]1CSCC(=O)N[C@H](Cc2ccc(O)cc2)C(=O)N[C@@H](CSCCCN)C(=O)NCC(=O)N[C@@H](CC(=O)O)C(=O)N1)C(N)=O)C(=O)NCCCC[C@H](N)C(=O)NCC(=O)N[C@@H](CS)C(=O)NCC(N)=O)C(N)=O [Peptide P688, {(CH2CO.YD.Apc. GDCGGCAcmGCAcmGGCamide)2(CH2CO)2K}2.K(ε-K)GCG.amide]
IC50 [2, 7]: 26 nM

(CH2CO.YD.Apc.GDCGGCAcmGCAcmGGC.amide)2(CH2CO)2K(ε-K)GC.amide [Peptide P667]
IC50 [2, 7]: 110 nM
% ID/g Thrombus ([3]; after the final image (4h post-injection)): 0.006 % ID/g
Thrombus/Blood ([3]; ratio): 5.9
Thrombus/Muscle ([3]; ratio): 30

(CH2CO.YDApc.GDCKGCG.amide)2(CH2CO)2K(ε-K)GC.amide [Peptide P748]
Thrombus/Blood [4]: 5.8
Thrombus/Muscle [4]: 90
IC50 [2, 7]: 29 nM

AKCGGGFDYWDKTFT.amide (AKCGGGFDYWDKTFT-NH2) [Peptide P398]
Ki [1]: 1.4 nM

GGCGLF [Peptide P477]
Blood (% ID/g) [5]: 0.0140 % ID/g
Control Muscle (% ID/g) [5]: 0.0012 % ID/g
Infected Muscle (% ID/g) [5]: 0.0100 % ID/g
Ratio of Infected/Blood [5]: 0.72
Ratio of Infected/Control [5]: 8.4

GGCSIPPEVKFNKPFVYLI.amide (GGCSIPPEVKFNKPFVYLI-NH2) [Peptide P472]
Blood (% ID/g) [5]: 0.0076 % ID/g
Control Muscle (% ID/g) [5]: 0.0009 % ID/g
Infected Muscle (% ID/g) [5]: 0.0079 % ID/g
Ratio of Infected/Blood [5]: 1.0
Ratio of Infected/Control [5]: 8.8

cyclo(N-methyl)FYWDKV.Hcy.(CH2CO.(β-Dap)KCK.amide) [Peptide P829]
Tumor/Blood [6]: 13

cyclo(N-methyl)FYWDKV.Hcy.(CH2CO.(β-Dap)KCR.amide) [Peptide P832]
Tumor/Blood [6]: 13

cyclo(N-methyl)FYWDKV.Hcy.(CH2CO.(δ-Dap)GCK.amide) [Peptide P772]
Tumor/Blood [6]: 7.2

cyclo(N-methyl)FYWDKV.Hcy.(CH2CO.(δ-Orn)GCK.amide) [Peptide P773]
% ID/g Blood ([6]; 1.5 h): 0.13 % ID/g
% ID/g Tumor ([6]; 1.5 h): 1.9 % ID/g
Tumor/Blood ([6]; 1.5 h): 15

cyclo(N-methyl)FYWDKV.Hcy.(CH2CO.(ε-K)GCKK.amide) [Peptide P723]
Tumor/Blood [6]: 5.4
